Consider 21 compounds from US4591604A, “Method of inhibiting the complement system by administering multisulfonated naphthalene ureas” (American Cyanamid Company, priority 1984, dated 1986).

The subject of assay [1] is serum complement activity. Put plainly: Guinea Pig Intraperitoneal Test (GPIP). The format is in vivo. As to conditions: 200 mg/kg i.p.; for In vivo Activity Guinea Pigs Intraperitoneal % Lowering, 30 minutes: blood sample 30 minutes after injection; for In vivo Activity Guinea Pigs Intraperitoneal % Lowering, 60 minutes: blood sample 60 minutes after injection; for In vivo Activity Guinea Pigs Intraperitoneal % Lowering, 120 minutes: blood sample 120 minutes after injection. Here is the method:
(§1) An active inhibitor protects C2 from C1 and C4; (ii) Test Code 036 (C-Shunt inhibitor)--In this test human erythrocytes rendered fragile are lysed in autologous serum via the shunt pathway activated by cobra venom factor in the presence of appropriate dilutions of the test compound. Inhibition of the shunt pathway results in failure of lysis; (iii) Cap 50 Test--Here, appropriate amounts of the test compound are added to a pool of guinea pig serum in vitro, after which the complement level is determined in undiluted serum by the serum capillary tube assay of U.S. Pat. No. 3,876,376. The concentration of compound inhibiting 50% is reported; and (iv) Guinea Pig Intraperitoneal Test (GPIP)--Guinea pigs weighing about 300 g are dosed intraperitoneally (i.p.) with 200 mg/kg of the test compound dissolved in saline and adjusted to pH 7-8. Approximately 0.4 ml blood samples, taken by orbital sinus puncture 30 minutes and one hour after injections, are collected directly into centrifuge tubes; 5 ml blood samples, taken by decapitation 2 hours after injection, are collected directly into diSPo® beakers. The samples were allowed to clot, centrifuged, and the resultant sera were assayed for complement activity using the capillary complement assay. Percent inhibition is calculated by comparison with simultaneous controls. The results of the GPIP appear in Table I together with results of Test Code 026, 036 and Cap 50.

The next assay has as its target activated human C1 (Homo sapiens, UniProt P09871). Put plainly: Test Code 026 (C1 inhibitor). The format is biochemical. Conditions: serial twofold dilution assay; higher well number indicates higher activity.
For assay [2], the system named is shunt pathway activated by cobra venom factor (lysis of human erythrocytes in autologous serum). Briefly: Test Code 036 (C-Shunt inhibitor). It is filed as cell-based. As to conditions: serial twofold dilution assay; higher well number indicates higher activity. Here is the method:
as §1, with “The results of the GPIP appear in Table I together with results of Test Code 026, 036 and Cap 50.” left out

A further assay concerns complement system. Conditions: reported in the literature; cited from earlier work.
Assay [3] has as its system hereditary angioneurotic edema. As to conditions: reported in the literature; cited from earlier work.
A further assay has as its system human serum complement. Conditions: in vitro and in vivo, judged by reduction in total hemolytic complement activity; cited from earlier work.

Structures can show the parent of a compound that is named as a salt.

`O=C(Nc1cc2c(O)cc(S(=O)(=O)[O-])cc2cc1S(=O)(=O)[O-])Nc1cc2c(O)cc(S(=O)(=O)[O-])cc2cc1S(=O)(=O)[O-].[Na+].[Na+].[Na+].[Na+]` [3,3'-Ureylenebis(5-hydroxy-2,7-naphthalenedisulfonic acid), tetrasodium salt]: in assay [1], the “In vivo Activity Guinea Pigs Intraperitoneal % Lowering, 30 minutes” value worked out at 4%; the “In vivo Activity Guinea Pigs Intraperitoneal % Lowering, 60 minutes” value was 1%; the “In vivo Activity Guinea Pigs Intraperitoneal % Lowering, 120 minutes” value amounted to 28%. Besides, on activated human C1, the “C1 026 Wells” value was “+4 Wells”.

For `O=C(Nc1cc(S(=O)(=O)[O-])c2cc([N+](=O)[O-])cc(S(=O)(=O)[O-])c2c1)Nc1cc(S(=O)(=O)[O-])c2cc([N+](=O)[O-])cc(S(=O)(=O)[O-])c2c1.[Na+].[Na+].[Na+].[Na+]` [3,3'-Ureylenebis(7-nitro-1,5-naphthalenedisulfonic acid), tetrasodium salt], the “C1 026 Wells” value at activated human C1 is on record as “+3 Wells”.

With `O=C(Nc1cc2ccc(S(=O)(=O)[O-])cc2cc1S(=O)(=O)[O-])Nc1cc2ccc(S(=O)(=O)[O-])cc2cc1S(=O)(=O)[O-].[Na+].[Na+].[Na+].[Na+]` [3,3'-Ureylenedi-2,7-naphthalenedisulfonic acid, tetrasodium salt], the “C1 026 Wells” value on activated human C1 was “+3 Wells”.

With `O=C(Nc1cc(S(=O)(=O)O)cc2cc(S(=O)(=O)O)cc(OS(=O)(=O)c3ccccc3)c12)Nc1cc(S(=O)(=O)O)cc2cc(S(=O)(=O)O)cc(OS(=O)(=O)c3ccccc3)c12` [4,4'-Ureylenebis(5-hydroxy-2,7-naphthalenedisulfonic acid), tetrasodium salt dibenzenesulfonate], at activated human C1, the “C1 026 Wells” value was “+3 Wells”.

With `O=C(Nc1ccc(S(=O)(=O)[O-])c2ccc(S(=O)(=O)[O-])cc12)Nc1ccc(S(=O)(=O)[O-])c2ccc(S(=O)(=O)[O-])cc12.[Na+].[Na+].[Na+].[Na+]` [4,4'-Ureylenedi-1,6-naphthalenedisulfonic acid, tetrasodium salt], the “C1 026 Wells” value on activated human C1 is listed as “+3 Wells”.

Turning to `O=C(Nc1ccc(S(=O)(=O)[O-])c2ccccc12)Nc1ccc(S(=O)(=O)[O-])c2ccccc12.[Na+].[Na+]` [4,4'-Ureylenedi-1-naphthalenesulfonic acid, disodium salt], the “C1 026 Wells” value on activated human C1 is “+2 Wells”.

As to `O=C(Nc1cc(S(=O)(=O)[O-])cc2ccc(S(=O)(=O)[O-])cc12)Nc1cc(S(=O)(=O)[O-])cc2ccc(S(=O)(=O)[O-])cc12.[Na+].[Na+].[Na+].[Na+]` [4,4'-Ureylenedi-2,6-naphthalenedisulfonic acid, tetrasodium salt], on activated human C1, the “C1 026 Wells” value is “+2 Wells”.

Consider `O=C(Nc1cc(S(=O)(=O)[O-])cc2cc(S(=O)(=O)[O-])ccc12)Nc1cc(S(=O)(=O)[O-])cc2cc(S(=O)(=O)[O-])ccc12.[Na+].[Na+].[Na+].[Na+]` [4,4'-Ureylenedi-2,7-naphthalenedisulfonic acid, tetrasodium salt], for which the “C1 026 Wells” value at activated human C1 is “+3 Wells”.

Regarding `O=C(Nc1ccc2c(S(=O)(=O)[O-])cc(S(=O)(=O)[O-])cc2c1)Nc1ccc2c(S(=O)(=O)[O-])cc(S(=O)(=O)[O-])cc2c1.[Na+].[Na+].[Na+].[Na+]` [6,6'-Ureylenedi-1,3-naphthalenedisulfonic acid, tetrasodium salt], the “C1 026 Wells” value at activated human C1 is given as “+3 Wells”.

As for `O=C(Nc1ccc2c(O)cc(S(=O)(=O)O)cc2c1)Nc1ccc2c(O)cc(S(=O)(=O)O)cc2c1` [6,6'-ureylenebis(1-hydroxy-3-naphthalenesulfonic acid)], on activated human C1, the “C1 026 Wells” value is “+1 Wells”.

For the compound `O=C(Nc1cc(S(=O)(=O)[O-])c2cc(S(=O)(=O)[O-])cc(S(=O)(=O)[O-])c2c1)Nc1cc(S(=O)(=O)[O-])c2cc(S(=O)(=O)[O-])cc(S(=O)(=O)[O-])c2c1.[Na+].[Na+].[Na+].[Na+].[Na+].[Na+]` [7,7'-Ureylenedi-1,3,5-naphthalenetrisulfonic acid, hexasodium salt], the “C-Shunt Inhibition 036 Wells” value in assay [2] was “+1 Wells”. Also, the “C1 026 Wells” value at activated human C1 is “+6 Wells”.

As for `O=C(Nc1ccc2cc(S(=O)(=O)O)cc(O)c2c1)Nc1ccc2cc(S(=O)(=O)O)cc(O)c2c1` [7,7'-ureylenebis(1-hydroxy-3-naphthalenesulfonic acid)], the “C1 026 Wells” value at activated human C1 is reported as “+2 Wells”.

As for `O=S(=O)([O-])c1cc(NC(=S)Nc2cc(S(=O)(=O)[O-])cc3cc(S(=O)(=O)[O-])cc(S(=O)(=O)[O-])c23)c2c(S(=O)(=O)[O-])cc(S(=O)(=O)[O-])cc2c1.[Na+].[Na+].[Na+].[Na+].[Na+].[Na+]` [8,8'-(2-Thioureylene)di-1,3,6-naphthalenetrisulfonic acid, hexasodium salt], in assay [1], the “In vivo Activity Guinea Pigs Intraperitoneal % Lowering, 30 minutes” value was found to be 41%; the “In vivo Activity Guinea Pigs Intraperitoneal % Lowering, 60 minutes” value was 20%; the “In vivo Activity Guinea Pigs Intraperitoneal % Lowering, 120 minutes” value was 42%. The “C1 026 Wells” value at activated human C1 was “+5 Wells”.

For the compound `O=C(Nc1ccc(S(=O)(=O)[O-])c2cc(S(=O)(=O)[O-])cc(S(=O)(=O)[O-])c12)Nc1ccc(S(=O)(=O)[O-])c2cc(S(=O)(=O)[O-])cc(S(=O)(=O)[O-])c12.[Na+].[Na+].[Na+].[Na+].[Na+].[Na+]` [8,8'-Ureylenedi-1,3,5-naphthalenetrisulfonic acid, hexasodium salt], in assay [1], the “In vivo Activity Guinea Pigs Intraperitoneal % Lowering, 30 minutes” value was determined as 92%; the “In vivo Activity Guinea Pigs Intraperitoneal % Lowering, 60 minutes” value came to 92%; the “In vivo Activity Guinea Pigs Intraperitoneal % Lowering, 120 minutes” value came out at 94%.

Regarding `O=C(Nc1cc(S(=O)(=O)[O-])cc2cc(S(=O)(=O)[O-])cc(S(=O)(=O)[O-])c12)Nc1cc(S(=O)(=O)[O-])cc2cc(S(=O)(=O)[O-])cc(S(=O)(=O)[O-])c12.[Na+].[Na+].[Na+].[Na+].[Na+].[Na+]` [8,8'-Ureylenedi-1,3,6-naphthalenetrisulfonic acid, hexasodium salt], in assay [1], the “In vivo Activity Guinea Pigs Intraperitoneal % Lowering, 30 minutes” value was determined as 25%; the “In vivo Activity Guinea Pigs Intraperitoneal % Lowering, 60 minutes” value is 61%; the “In vivo Activity Guinea Pigs Intraperitoneal % Lowering, 120 minutes” value was determined as 65%. The “C1 026 Wells” value at activated human C1 was “+5 Wells”.

Turning to `O=C(Nc1cc(S(=O)(=O)[O-])cc2cccc(S(=O)(=O)[O-])c12)Nc1cc(S(=O)(=O)[O-])cc2cccc(S(=O)(=O)[O-])c12.[Na+].[Na+].[Na+].[Na+]` [8,8'-Ureylenedi-1,6-naphthalenedisulfonic acid, tetrasodium salt], the “C1 026 Wells” value at activated human C1 is recorded as “+3 Wells”.

On to `Nc1ccc2cc(S(=O)(=O)[O-])cc(O)c2c1N=Nc1ccc(NC(=O)Nc2ccc(N=Nc3c(N)ccc4cc(S(=O)(=O)[O-])cc(O)c34)c(S(=O)(=O)[O-])c2)cc1S(=O)(=O)[O-].[Na+].[Na+].[Na+].[Na+]` [chlorazol fast pink, 3,3'-ureylenebis[6-(2-amino-8-hydroxy-6-sulfo-1-naphthylazo)benzenesulfonic acid], tetrasodium salt], for which the anti-complementary effect entry in the assay on complement system is recorded as “anti-complementary effect”.

For the compound `NCCCCCC(=O)O` [epsilon-aminocaproic acid], in assay [3], the “success in the treatment of hereditary angioneurotic edema” value is “used with success”.

As to `NC[C@H]1CC[C@H](C(=O)O)CC1` [tranexamic acid], in assay [3], the “success in the treatment of hereditary angioneurotic edema” value is “used with success”.

On to heparin, for which the anti-complementary effect result in the assay with complement system is “anti-complementary effect”.

For the compound pentosanpolysulfoester, in the assay on human serum complement, the “anticomplementary activity on human serum” value is recorded as “anticomplementary activity”.
